The text below walks through data of ChEMBL document CHEMBL1201862, “PubChem BioAssay data set” (2004).

The nature of assay [1]: Luminescence Cell-Based Dose Retest to Confirm Inhibitors of Cancer Stem Cells. [Related pubchem assays (depositor defined):AID2717, AID2721]. The settings on record: Homo sapiens. It counts as functional.
Assay [2] deals with Streptococcus sp. 'group A'. In words: growth inhibition of control SK(-) GAS strain, dose response, counter-screen for streptokinase expression inhibitor project, luminescence, kanamycin, BacTiterGlo, confirmation (AID 1900). It counts as functional, organism-based. A general note: The purpose of a counterscreen is to sort out artefacts and off-target activity.
Another assay concerns the target T1, Streptokinase A (Streptococcus pyogenes serotype M1, UniProt P10520).
T1 sequence (P10520 whole entry): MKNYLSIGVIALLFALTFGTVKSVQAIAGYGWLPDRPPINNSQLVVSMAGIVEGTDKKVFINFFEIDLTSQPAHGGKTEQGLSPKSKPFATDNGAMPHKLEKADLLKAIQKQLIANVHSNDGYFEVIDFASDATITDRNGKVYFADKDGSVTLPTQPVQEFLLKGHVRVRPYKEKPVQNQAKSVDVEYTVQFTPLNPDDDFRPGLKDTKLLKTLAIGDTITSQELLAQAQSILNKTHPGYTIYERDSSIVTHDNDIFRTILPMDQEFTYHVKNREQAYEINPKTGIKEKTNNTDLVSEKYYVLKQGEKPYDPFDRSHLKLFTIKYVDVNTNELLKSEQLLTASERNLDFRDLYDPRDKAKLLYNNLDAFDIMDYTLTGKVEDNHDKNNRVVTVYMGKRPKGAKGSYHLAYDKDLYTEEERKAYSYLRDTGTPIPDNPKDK
In words: S. pyogenes streptokinase expression inhibitors, potency, dose response, plasminogen activation absorbance, OD405 (AID 1914).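 Further: secreted streptokinase activity via plasminogen activation per viability signal from cell pellet.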 It counts as functional, Streptococcus pyogenes M1 GAS.

The next assay has as its system Streptococcus. Briefly: Group A Streptococcus viability loss, dose response, counter-screen for streptokinase expression inhibitor project, luminescence, BacTiterGlo (AID 1915).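 Further: potency for reduction of bacterial viability or growth.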 It counts as functional, organism-based.
A short description of assay [3]: HEp-2 cell cytotoxicity, dose response, cytotoxicity control for RSV inhibitor project, HTS (AID 2410). The format is functional. The following applies: human respiratory syncytial virus.
The target of the next assay is Cytochrome P450 3A4 (Homo sapiens, UniProt P08684).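 Further: CYP3A4 tested as one member of a cytochrome P450 panel screen.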
Sequence of Cytochrome P450 3A4 (P08684 whole entry): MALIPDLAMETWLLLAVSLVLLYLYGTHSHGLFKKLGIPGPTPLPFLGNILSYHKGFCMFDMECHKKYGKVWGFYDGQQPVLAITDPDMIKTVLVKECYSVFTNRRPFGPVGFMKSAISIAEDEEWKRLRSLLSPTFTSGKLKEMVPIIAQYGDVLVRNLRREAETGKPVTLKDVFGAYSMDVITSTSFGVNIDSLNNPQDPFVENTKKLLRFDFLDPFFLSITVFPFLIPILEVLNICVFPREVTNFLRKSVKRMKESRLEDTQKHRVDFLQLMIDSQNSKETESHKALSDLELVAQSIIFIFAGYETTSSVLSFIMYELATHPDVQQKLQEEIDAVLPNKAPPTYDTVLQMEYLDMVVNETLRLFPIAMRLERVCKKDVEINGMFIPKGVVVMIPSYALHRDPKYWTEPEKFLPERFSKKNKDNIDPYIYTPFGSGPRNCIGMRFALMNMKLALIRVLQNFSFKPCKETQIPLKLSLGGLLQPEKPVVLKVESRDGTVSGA
The next assay has as its target Cytochrome P450 2C19 (Homo sapiens, UniProt P33261). In words: Cytochrome panel assay with activity outcomes. Panel member name: p450-cyp2c19 Compounds with AC50 equal or less than 10 uM are considered active. The format is functional. The settings on record: read-out: AC50.
The target of a further assay is T2, Cytochrome P450 1A2 (Homo sapiens, UniProt P05177).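 Further: PubChem cytochrome P450 panel assay, CYP1A2 panel member.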
T2 sequence (P05177 whole entry): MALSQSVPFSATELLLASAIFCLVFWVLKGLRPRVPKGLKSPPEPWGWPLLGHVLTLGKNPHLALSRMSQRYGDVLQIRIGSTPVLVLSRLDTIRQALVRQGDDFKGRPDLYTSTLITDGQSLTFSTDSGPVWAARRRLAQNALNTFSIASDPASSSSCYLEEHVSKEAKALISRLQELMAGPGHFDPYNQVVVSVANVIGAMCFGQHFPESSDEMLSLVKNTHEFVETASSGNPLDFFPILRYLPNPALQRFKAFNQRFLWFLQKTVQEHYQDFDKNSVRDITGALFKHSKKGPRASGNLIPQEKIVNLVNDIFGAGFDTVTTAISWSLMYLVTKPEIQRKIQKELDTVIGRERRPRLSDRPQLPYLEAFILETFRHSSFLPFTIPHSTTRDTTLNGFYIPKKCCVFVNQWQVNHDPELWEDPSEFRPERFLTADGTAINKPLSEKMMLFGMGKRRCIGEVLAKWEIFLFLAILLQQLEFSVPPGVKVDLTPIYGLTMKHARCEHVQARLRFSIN

Assay [4] in a line: cytotoxicity toward NIH3T3 fibroblasts, dose response, counter-screen, cell-based, ATP luminescence, mouse fibroblasts (AID 2010).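 Further: cells exposed to compound for about 90 hours before reading.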 It counts as functional.
Assay [5] can be described thus: inhibitors of intracellular T. cruzi replication, confirmation, NIH3T3 host cells, beta-gal luminescence (AID 2044).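 Further: intracellular parasites grown in NIH/3T3 mouse fibroblasts as host cells; luminescent beta-galactosidase reporter signal from transgenic T. cruzi replicating inside host cells; inhibitors lower the luminescence signal.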 It counts as functional, cell-based.
For the next assay, the system named is INS1. Briefly: beta cell apoptosis inhibitors, cytokine rescue, dose response, luminescence, retest (AID 449756).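 Further: cell death triggered by IL-1 beta plus TNF-alpha plus IFN-gamma mixture; protective hits raise ATP signal compared with cytokine alone wells.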 It counts as functional, cell-based. The following applies: Rattus norvegicus.
A further assay addresses T3, Protein RecA (Mycobacterium tuberculosis, UniProt P9WHJ3).
T3 sequence (P9WHJ3 whole entry): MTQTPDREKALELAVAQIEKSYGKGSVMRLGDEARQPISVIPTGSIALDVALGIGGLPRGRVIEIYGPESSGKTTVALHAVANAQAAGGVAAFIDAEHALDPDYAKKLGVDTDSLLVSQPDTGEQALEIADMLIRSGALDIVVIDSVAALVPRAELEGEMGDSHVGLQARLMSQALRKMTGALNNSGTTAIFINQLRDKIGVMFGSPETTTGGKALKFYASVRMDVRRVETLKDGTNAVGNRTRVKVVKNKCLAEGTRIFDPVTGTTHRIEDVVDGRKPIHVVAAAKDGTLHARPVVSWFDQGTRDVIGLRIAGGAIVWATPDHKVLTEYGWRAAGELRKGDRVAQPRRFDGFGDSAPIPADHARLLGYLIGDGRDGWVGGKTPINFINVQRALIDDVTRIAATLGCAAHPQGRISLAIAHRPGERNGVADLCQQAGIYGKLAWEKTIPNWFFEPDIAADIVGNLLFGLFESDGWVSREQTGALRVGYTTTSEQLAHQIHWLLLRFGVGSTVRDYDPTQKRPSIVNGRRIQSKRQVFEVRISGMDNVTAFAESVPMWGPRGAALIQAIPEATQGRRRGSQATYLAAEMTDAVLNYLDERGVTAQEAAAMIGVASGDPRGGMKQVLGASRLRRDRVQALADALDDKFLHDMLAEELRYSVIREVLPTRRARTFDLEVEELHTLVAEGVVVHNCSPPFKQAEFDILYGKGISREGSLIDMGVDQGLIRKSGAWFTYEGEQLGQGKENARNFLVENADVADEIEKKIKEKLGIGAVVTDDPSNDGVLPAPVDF
In words: Fluorescence Cell-Free Homogeneous Dose Retest to Identify Inhibitors of RecA-Intein Splicing Activity. [Related pubchem assays (depositor defined):AID2097, AID2223, AID489010, AID492950]. It counts as functional.

The target in assay [6] is T4, Heat shock factor protein 1 (Mus musculus, UniProt P38532).
T4 sequence (P38532 whole entry): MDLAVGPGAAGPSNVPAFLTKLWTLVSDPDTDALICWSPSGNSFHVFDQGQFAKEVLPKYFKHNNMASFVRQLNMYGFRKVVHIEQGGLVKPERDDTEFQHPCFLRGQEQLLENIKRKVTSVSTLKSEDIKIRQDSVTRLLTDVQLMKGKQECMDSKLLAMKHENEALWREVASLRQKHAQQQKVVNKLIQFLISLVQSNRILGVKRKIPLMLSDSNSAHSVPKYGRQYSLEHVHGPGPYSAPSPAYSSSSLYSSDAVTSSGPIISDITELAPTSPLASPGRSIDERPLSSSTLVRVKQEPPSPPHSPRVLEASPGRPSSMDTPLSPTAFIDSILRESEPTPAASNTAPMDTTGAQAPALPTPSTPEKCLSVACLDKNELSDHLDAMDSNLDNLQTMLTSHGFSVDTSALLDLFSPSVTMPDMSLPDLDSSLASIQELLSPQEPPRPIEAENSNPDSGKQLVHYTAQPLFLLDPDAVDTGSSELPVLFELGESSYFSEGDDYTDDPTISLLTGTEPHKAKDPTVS
In words: inhibition of MG132-induced HSE-luciferase signal, confirmation, cell-based, NIH3T3, luminescence, dose retest (AID 2382).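 Further: NIH3T3 fibroblasts with HSF1-driven luciferase reporter stressed by proteasome inhibitor MG132; luminescence from HSF1-driven luciferase expression after 8 hours of MG132 stress.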 It counts as functional.

Calls of active or inactive are those of the source.

Sequence of Cytochrome P450 2C19 (P33261 whole entry): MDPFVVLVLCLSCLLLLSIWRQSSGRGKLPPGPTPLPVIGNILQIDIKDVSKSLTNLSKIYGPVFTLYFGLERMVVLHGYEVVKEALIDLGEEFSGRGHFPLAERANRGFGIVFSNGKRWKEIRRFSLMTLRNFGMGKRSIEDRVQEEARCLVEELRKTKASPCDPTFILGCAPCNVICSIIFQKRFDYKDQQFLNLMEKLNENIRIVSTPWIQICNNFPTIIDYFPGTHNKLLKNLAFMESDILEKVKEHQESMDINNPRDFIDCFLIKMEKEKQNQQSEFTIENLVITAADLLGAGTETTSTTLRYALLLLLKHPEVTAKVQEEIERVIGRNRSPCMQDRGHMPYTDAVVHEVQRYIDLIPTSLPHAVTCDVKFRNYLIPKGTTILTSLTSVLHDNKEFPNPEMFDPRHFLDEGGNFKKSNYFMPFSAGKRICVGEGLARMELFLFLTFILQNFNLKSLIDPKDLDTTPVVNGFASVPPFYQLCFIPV

Turning to `COc1cc(/C=C(\C#N)c2ccccn2)ccc1OCC(=O)Nc1ccc(Br)cc1`, the AC50 in assay [1] was 1.71 µM (active). On the same count and under the same terms, then `CC1(C)CC[C@]2(CO)CC[C@]3(C)C(=CCC4[C@@]5(C)CC[C@H](O)[C@@](C)(CO)C5CC[C@]43C)[C@@H]2C1` (some centres undefined), with 3.13 µM (active). As for `CCN(CC)CCN(C(=O)C1=COCCO1)c1nc2cc(C)cc(C)c2s1`, the EC50 (in [2]; at Streptokinase A; in the assay with Streptococcus) was > 150 µM (not active) in each case. In the case of `CSc1nc(-c2ccc(C)cc2)nc(N)c1C#N`, in assay [3], the CC50 is 49.6 µM (active).

With `CC(COc1ccc(C(C)C)cc1)NC(=O)c1ccc(Br)o1` (centres undefined), the EC50 in assay [2] was 45.6 µM (active); on Streptokinase A, > 150 µM (not active); in the assay on Streptococcus it was > 150 µM (not active). Take `NS(=O)(=O)Cc1noc2ccccc12`: the AC50 on Cytochrome P450 3A4 is 31.6 µM (inconclusive). For the compound `Cc1ccc(N=Nc2c(N)nn3c(O)c4c(nc23)CCCC4)cc1`, the AC50 on Cytochrome P450 3A4 was 7.94 µM (inconclusive). For `O=C(Nc1ccccc1)N1CC[C@@]2(CCCN(C(=O)c3ccncc3)C2)C1`, at Cytochrome P450 3A4, the AC50 was 15.8 µM (inconclusive). Turning to `CSc1ccc(C2=CC(=O)C[C@H](c3ccc(Cl)cc3)C2)cc1`, the AC50 in assay [1] was 1.7 µM (active). For `CCCCOc1ccccc1C1C(C(=O)OC)=C(C)N(C)C(C)=C1C(=O)OC`, in [3], the CC50 is > 50 µM (active).

Turning to `Cc1[nH]n(-c2ccccc2)c(=O)c1/C=C1/C(=O)NN(c2ccc(F)cc2)C1=O`, the AC50 in assay [1] was 4.08 µM (active). For `Cc1cccn2cc(-c3cccc(S(=O)(=O)N4CC(C)OC(C)C4)c3)nc12` (centres undefined), the CC50 in assay [3] was 44.6 µM (active). As for `O=C(Nc1ccc(O)cc1)c1ccc(NC(=O)c2cccs2)cc1`, the AC50 in assay [1] was 3.51 µM (active).

Turning to `Oc1ccc(Oc2ccc(Oc3ccc(O)cc3)cc2)cc1`, the figures for the EC50 (in assay [2]; on Streptokinase A; with Streptococcus) were 8.4 µM (active), > 150 µM (not active) and 18.4 µM (active), respectively. For `COc1ccc(CNC(=O)Cc2csc(NC(=O)Nc3ccccc3OC)n2)cc1`, in that order: > 150 µM (not active), > 150 µM (not active) and > 150 µM (not active). Turning to `Cc1cc2nc(C3CCCN(C(S)=Nc4ccccc4)C3)[nH]c2cc1C` (centres undefined), the figures for the AC50 at Cytochrome P450 2C19, at Cytochrome P450 1A2 and on Cytochrome P450 3A4 were 7.08 µM (inconclusive), 1.58 µM (inconclusive) and 0.141 µM (inconclusive), respectively. As for `CC(C)N=C(S)NC(c1ccccc1)(c1ccccc1)c1ccccc1`, the EC50 in assay [4] was > 60 µM (not active); in assay [5] it was 3.99 µM (active); in [2], 6.6 µM (active); with Streptococcus it was > 150 µM (not active). For the same compound, the AC50 with INS1 was 8.18 µM (active). Turning to `CCCC(=O)N1c2ccccc2C(N(C(C)=O)c2ccccc2)CC1C` (centres undefined), the AC50 on Cytochrome P450 3A4 was 0.891 µM (inconclusive). Turning to `O=C(CC1CC2CCC1C2)NCCc1ccc(Cl)cc1` (centres undefined), in the assay with INS1, the AC50 was > 260 µM (inactive).

As to `COCc1ccc(O)c2ncccc12`, in the assay on INS1, the AC50 was 5 µM (active). Consider `COc1ccc(CNc2cc(-c3ccccc3CN(C)C)ncn2)c(OC)c1`, for which the AC50 at Cytochrome P450 1A2 and on Cytochrome P450 3A4 was 15.8 µM (inconclusive) in each case. On to `COc1ccc(NC(=O)N2CCCC3(CCN(C(=O)c4cccc(F)c4)CC3)C2)cc1`, for which, at Cytochrome P450 3A4, the AC50 was 15.8 µM (inconclusive). As to `COc1cc(/C=N/NC(=O)c2cc(-c3cccc(Br)c3)nc3ccccc23)cc(OC)c1O`, in assay [3], the cytotoxic concentration (CC50) was 36 µM (active). As to `O=C(NC(=S)Nc1cccc(-c2ccc(CO)o2)c1)c1cccs1`, the EC50 in assay [2] is 23.1 µM (active); at Streptokinase A it was > 150 µM (not active); with Streptococcus it was 68.4 µM (active). With `O=C(c1ccccc1)c1sc(N2CCCCCC2)nc1-c1ccccc1`, the CC50 in assay [3] is 31.1 µM (active). Regarding `C/C(=N/NC(=O)c1cc(-c2ccccc2)nc2c(Cl)cccc12)c1cccnc1`, the EC50 in assay [2] was > 150 µM (not active); at Streptokinase A, 25.9 µM (inconclusive); with Streptococcus, > 150 µM (not active). In the case of `CCOC(=O)N1CCN(c2cc(N)c([N+](=O)[O-])cc2F)CC1`, in assay [3], the CC50 is > 50 µM (active). On to `O=C(Nc1ccc(F)cc1)N1CCCCCC1`, for which the EC50 (in assay [2]; at Streptokinase A; in the assay with Streptococcus) was > 150 µM (not active) each time.

As to `COc1ccc(NC(=O)N2CCCC3(CCN(C(=O)c4cc(C(F)(F)F)cc(C(F)(F)F)c4)CC3)C2)cc1`, the AC50 on Cytochrome P450 3A4 was 10 µM (inconclusive). Take `Cc1cc(OCc2nc(-c3ccc(NC(=O)c4cccnc4)cc3)no2)ccc1Cl`: the half-maximal cytotoxic concentration (CC50) in assay [3] is > 50 µM (active). Also, the AC50 in the assay on INS1 was 0.624 µM (active). Take `O=C1CCCC=C1[C@H](CCc1ccccc1)OC(=O)c1ccc(Br)cc1`: the AC50 on Cytochrome P450 3A4 was 5.01 µM (inconclusive). Consider `O=C(Nc1ccc2c(c1)OCO2)C1CCN(C(=O)CSc2ncnc3ccccc23)CC1`, for which the CC50 in assay [3] is 41.4 µM (active). As for `COc1ccc(N2C(=O)NC3CC2(C)Oc2ccccc23)cc1OC` (centres undefined), the AC50 at Cytochrome P450 2C19 is 7.94 µM (inconclusive); on Cytochrome P450 3A4 it was 22.4 µM (inconclusive). On to `CC1=NN(c2cccc(Cl)c2)C(=O)C12CC(C)=C(C)CS2` (centres undefined), for which the EC50 at Protein RecA was 13.2 µM (active). Take `Cc1ccc(NC(S)=NC2CCCC2)cc1`: the AC50 on Cytochrome P450 3A4 was 10 µM (inconclusive). Take `COC(=O)CCC(=O)NNC(=O)c1cccc(Br)c1`: in assay [6], the EC50 is on record as > 195 µM (not active).

Usually AC50 stands for the concentration giving half of the maximal activity seen. A word on the EC50: it is the concentration needed to bring the measured effect to its halfway point. What is called CC50 is the concentration that lowers cell viability or growth by half.
